The record followed here is patent US4409210A, “Antibiotic compound” (priority 1982, dated 1983).

The assay concerns Clindamycin-erythromycin-resistant strains of C. difficile and C. perfringens. Type of assay: cell-based.

*1 amine or outer side, *2 acyl side, *3 side chain or, on linkers, in order; H or OH if unused. Where a SMILES comes first, the peptide text is derived from it. Bridges are numbered along the chain shown (N, C = ends). [ ]: non-standard residue; d: D form. ξ: configuration not given here. X2 = CCCCCCCCCCCC(CC(=O)[*:1])O[*:2]; ξAsp(3ξ-OH) = NC(C(=O)O)C(O)C(=O)O; X1 = O=C(C1C(O)CCN1[*:1])[*:2]

In the case of `CCCCCCCCCCCC1CC(=O)N2CCCC2C(=O)NC(CO)C(=O)N2CCCC2C(=O)NC(CCCNC(=N)N)C(=O)NC(C(O)C(=O)O)C(=O)NC(CO)C(=O)N2CCC(O)C2C(=O)NC(C(O)C(=O)O)C(=O)O1` (stereo not shown) [Bu-2517] (PSPR[ξAsp(3ξ-OH)]S[X1][ξAsp(3ξ-OH)]; linker N-C via X2; configuration not given here), the “concentration to which strains were susceptible” value was 1.6 to 3.1 µg/mL.
